Molecular target: human lysosomal HexA/HexB
Format: biochemical
Conditions: read-out: Hex A/B, Ki

## CC(=O)N[C@H]1/C(=N/OC(=O)Nc2ccccc2)O[C@H](CO)[C@@H](O)[C@@H]1O [PUGNAc, O-(2-acetamido-2-deoxy-D-glucopyranosylidene)amino N-phenylcarbamate]
  Ki: 25 ± 2.5 nM
